This note sets out measurements from patent US8916579B2, “5-fluoropyrimidinone derivatives” (Dow AgroSciences, LLC., priority 2009, dated 2014).

Read-outs that look alike come from different tables or passages of the source.

Data set [1] relates to Mycosphaerella graminicola; anamorph: Septoria tritici; Bayer code SEPTTR. In words: Fungicidal activity: leaf blotch of wheat, greenhouse wheat plants (variety Yuma), percent disease control. The format is in vivo. The conditions noted are these: Zymoseptoria tritici, 100 ppm, wheat plants.
Setting [2] is: 24 h, One-Day Protectant (1DP), read-out: SEPTTR 100 PPM 1DP (% Disease Control rating).
[3] abbreviates: 72 h, Three-Day Curative (3DC), read-out: SEPTTR 100 PPM 3DC (% Disease Control rating).

Consider `O=C(Nc1ccccc1Cl)Nc1nc(=O)n(CC2CC2)cc1F` [Compound 85, 1-(2-chlorophenyl)-3-(1-(cyclopropylmethyl)-5-fluoro-2-oxo-1,2-dihydropyrimidin-4-yl)urea], for which the melting point – broadly, the temperature of the solid-liquid transition – fell in the range of 197 to 199 °C. Also, the pest or weed control at 100 ppm in data set [1] (setting [2]) lay in the range of 0 to 25%. Also, in data set [1] (setting [3]), the pest or weed control at 100 ppm lay in the range of 0 to 25%.
In the case of `Nc1nc(=O)n(COc2ccc(Cl)cc2)cc1F` [Compound 19], the melting point is 240 to 245 °C. Besides, the pest or weed control at 100 ppm in data set [1] (setting [2]) was in the range of 26 to 50%. Besides, in data set [1] (setting [3]), the pest or weed control at 100 ppm was in the range of 0 to 25%.
`CN(C)/C=N/c1nc(=O)n(Cc2ccccc2)cc1F` [Compound 6] displayed a melting point of 186 to 188 °C. In addition, the pest or weed control at 100 ppm in data set [1] (setting [2]) was 0 to 25%. For the same compound, in data set [1] (setting [3]), the pest or weed control at 100 ppm is 0 to 25%.
In the case of `O=c1nc(NCc2ccccc2F)c(F)cn1-c1ccsc1` [Compound 65, 5-fluoro-4-(2-fluorobenzylamino)-1-(thiophen-3-yl)pyrimidin-2(1H)-one], the melting point fell in the range of 75 to 78 °C. In data set [1] (setting [2]), the pest or weed control at 100 ppm lay in the range of 0 to 25%. Also, the pest or weed control at 100 ppm in data set [1] (setting [3]) was 0 to 25%.
Consider `CC(C)(C)C(=O)OCn1cc(F)c(N)nc1=O` [Compound 22], for which the melting point was in the range of 259 to 264 °C. Also, the pest or weed control at 100 ppm in data set [1] (setting [2]) is 76 to 100%. Further, the pest or weed control at 100 ppm in data set [1] (setting [3]) was in the range of 76 to 100%.
